Test results published in patent US4837228A, “Antiinflammatory and antimicrobial compounds and compositions” (The University of Mississippi, priority 1982, dated 1989).
≈ marks a conversion by molar mass, not a printed value. Where two headings read alike, the source gives them in different places.

Columns and labels:
Assay type in all cases: cell-based
[1] = tested on: Candida albicans; experiment: agar well diffusion assay, C. albicans; details: from edge of agar well
Description: (§1) Both qualitative and quantitative screens were performed. Qualitative screening was accomplished using the agar well diffusion assay technque while quantitative screening was accomplished by the two-fold (broth) serial dilution method to determine the minimum inhibitory concentration (MIC). Innoculation was accomplished with one loop-full of a 1:10 dilution of the 24-hour-old broth culture, (fungal cultures and M.smegmatis more often required 48 to 72 hours of incubation) of the test organisms in sterile water. Streptomycin sulfate was used as a positive control for antibacterial activity while amphitericin B was used as an antifungal positive control. Organisms utilized in the screens included gram-positive, gram-negative, and acid-fast bacteria as well as different types of fungi. […] An intermediate type activity is seen where R is hydrogen. However, where R is lengthened up to C15 a decrease in activity was noted. Total saturation of the two double bonds in the compounds having a methyl side chain lead, in most cases, to an increase in both antifungal and antibacterial activity.

[2] = tested on: Escherichia coli; experiment: agar well diffusion assay, E. coli; details: from edge of agar well
Description: as §1

[3] = tested on: Mycobacterium smegmatis; experiment: MIC, two-fold (broth) serial dilution, M. smegmatis
Description: as §1

[4] = tested on: Mycobacterium smegmatis; experiment: agar well diffusion assay, M. smegmatis; details: from edge of agar well
Description: as §1

[5] = tested on: Trichophyton mentagrophytes; experiment: MIC, two-fold (broth) serial dilution, T. mentagrophytes
Description: as §1

[6] = tested on: Candida albicans; experiment: MIC, two-fold (broth) serial dilution, C. albicans
Description: as §1

[7] = tested on: Saccharomyces cerevisiae; experiment: agar well diffusion assay, S. cerevisiae; details: from edge of agar well
Description: as §1

[8] = tested on: Staphylococcus aureus; experiment: agar well diffusion assay, S. aureus; details: from edge of agar well
Description: as §1

[9] = tested on: Staphylococcus aureus; experiment: MIC, two-fold (broth) serial dilution, S. aureus; details: Staphylococcus aureus, read-out: MIC
Description: as §1

[10] = tested on: Pseudomonas aeruginosa; experiment: agar well diffusion assay, Ps. aeruginosa; details: from edge of agar well
Description: as §1

[11] = tested on: Trichophyton mentagrophytes; experiment: agar well diffusion assay, T. mentagrophytes; details: for width of inhibition zone: from edge of agar well
Description: as §1

[12] = tested on: erythrocyte (heat-induced hemolysis); experiment: erythrocyte membrane stabilization assay (heat-induced erythrocyte hemolysis); details: Erythrocyte, 1 × 10^-4 M
Description: The published procedure (Proc. Soc. Exp. Biol. Med. 1967; 125; 837-842 Brow et al) for in vitro assay for antiinflammatory agents based on stabilization of erythrocytes was used. All compounds were prepared for administration by dissolving in physiologic saline or suspending in 2% ethanol in saline and the pH adjusted to 7.4 The concentrations tested in one series are given in Table 8. Aspirin (ASA) and phenylbutazone were used as positive controls for comparison of activity. Tests using this procedure were successfully and repeatedly using either 40% or 20% RBC suspensions.

[13] = tested on: Bacillus subtilis; experiment: agar well diffusion assay, B. subtilis; details: from edge of agar well
Description: as §1

[14] = tested on: Aspergillus niger; experiment: agar well diffusion assay, A. niger; details: from edge of agar well
Description: as §1

[15] = tested on: Saccharomyces cerevisiae; experiment: MIC, two-fold (broth) serial dilution, S. cerevisiae
Description: as §1

[16] = tested on: Bacillus subtilis; experiment: MIC, two-fold (broth) serial dilution, B. subtilis; details: Bacillus subtilis, read-out: MIC
Description: as §1

[17] = 48 hr, listed as Iso CBC (VIII)
[18] = 72 hr, listed as Iso CBC (VIII)
[19] = Mycolicibacterium smegmatis, 24 h, read-out: MIC
[20] = Mycolicibacterium smegmatis, 48 h, read-out: MIC
[21] = Trichophyton mentagrophytes, 48 h, read-out: MIC
[22] = Trichophyton mentagrophytes, 72 h, read-out: MIC

SMILES | width of inhibition zone ([1]; 48 hr) [mm] | width of inhibition zone ([1]; 72 hr) [mm] | width of inhibition zone ([2]; 24 hr) [mm] | width of inhibition zone ([2]; 48 hr) [mm] | MIC [3, 19] [µg/mL] | MIC [3, 20] [µg/mL] | width of inhibition zone ([4]; 24 hr) [mm] | width of inhibition zone ([4]; 48 hr) [mm] | MIC [5, 21] [µg/mL] | MIC [5, 22] [µg/mL] | width of inhibition zone ([7]; 48 hr) [mm] | width of inhibition zone ([7]; 72 hr) [mm] | width of inhibition zone ([8]; 24 hr) [mm] | width of inhibition zone ([8]; 48 hr) [mm] | MIC ([9]; 24 h) [µg/mL] | MIC ([9]; 48 h) [µg/mL] | width of inhibition zone ([10]; 24 hr) [mm] | width of inhibition zone ([13]; 24 hr) [mm] | width of inhibition zone ([13]; 48 hr) [mm] | width of inhibition zone ([14]; 48 hr) [mm] | further results
CC(C)=CCCC1(C)C=Cc2ccc(O)cc2O1 (stereo not drawn) [Iso CBC (VII), 2-methyl-2(4'-methyl-pent-3'-enyl)-7-hydroxychromene] | 3. | 2. | 2. | 2. | 25 (≈ 102 µM) | 25 (≈ 102 µM) | 6. | 4. | 6.25 (≈ 25.6 µM) | 6.25 (≈ 25.6 µM) | 2. | 2. | 10. | 10. | 12.5 (≈ 51.2 µM) | 12.5 (≈ 51.2 µM) | 4. | 10. | 7. | 1. | width of inhibition zone [1, 17]: 4. mm; width of inhibition zone [1, 18]: 5. mm; MIC ([3]; 24 hr): 12.5 µg/mL (≈ 51.2 µM); MIC ([3]; 48 hr): 12.5 µg/mL (≈ 51.2 µM); width of inhibition zone ([4]; 24 hr, listed as Iso CBC (VIII)): 5. mm; width of inhibition zone [4, 17]: 5. mm; MIC [6, 17]: 12.5 µg/mL (≈ 51.2 µM); MIC [6, 18]: 25 µg/mL (≈ 102 µM); width of inhibition zone [7, 17]: 4. mm; width of inhibition zone [7, 18]: 4. mm; width of inhibition zone ([10]; 48 hr): 4. mm; agar well diffusion result in words ([11]; one entry across 48 hr and 72 hr): No growth; inhibition at 100 µM ([12]; read-out: inhibition of heat-induced erythrocyte hemolysis, Table 8): 43%
CC(C)=CCCC1(C)C=Cc2c(O)cccc2O1 (stereo not drawn) [CBC (VI), 2-methyl-2-(4'-methyl-pent-3'-enyl)-5-hydroxychromene] | 7. | 5. | 3. | 2. | 12.5 (≈ 51.2 µM) | 12.5 (≈ 51.2 µM) | 20. | 18. | 25 (≈ 102 µM) | 25 (≈ 102 µM) | 10. | 8. | 15. | 15. | 12.5 (≈ 51.2 µM) | 12.5 (≈ 51.2 µM) | 3. | 10. | 10. | 9. | MIC ([5]; 48 hr): 25.0 µg/mL (≈ 102 µM); MIC ([5]; 72 hr): 25.0 µg/mL (≈ 102 µM); MIC ([6]; 48 hr): 50.0 µg/mL (≈ 205 µM); MIC ([6]; 72 hr): 50.0 µg/mL (≈ 205 µM); MIC ([6]; Candida albicans, 48 h, read-out: MIC): 50 µg/mL (≈ 205 µM); MIC ([6]; Candida albicans, 72 h, read-out: MIC): 50 µg/mL (≈ 205 µM); MIC ([15]; 48 hr): 25.0 µg/mL (≈ 102 µM); MIC ([15]; 72 hr): 25.0 µg/mL (≈ 102 µM); MIC ([15]; Saccharomyces cerevisiae, 48 h, read-out: MIC): 25 µg/mL (≈ 102 µM); MIC ([15]; Saccharomyces cerevisiae, 72 h, read-out: MIC): 25 µg/mL (≈ 102 µM); MIC ([16]; 24 h): 6.25 µg/mL (≈ 25.6 µM); MIC ([16]; 48 h): 12.5 µg/mL (≈ 51.2 µM); width of inhibition zone ([11]; 48 hr): 20. mm; width of inhibition zone ([11]; 72 hr): 19. mm; inhibition at 100 µM ([12]; Table 8, read-out: inhibition of heat-induced erythrocyte hemolysis): 69%; width of inhibition zone ([14]; 72 hr): 5. mm
